The values that follow come from patent US8822410B2, “Tympanic membrane permeating ear drops and uses thereof” (Children's Medical Center Corporation, priority 2008, dated 2014).

One series deals with S. pneumoniae. To be noted: middle ear infections; cited from earlier work.
Another series deals with H. influenza. To be noted: middle ear infections; cited from earlier work.
Series [1] can be described thus: pH of ciprofloxacin solutions. To be noted: 1% ciprofloxacin solution. It counts as physicochemical.

Molecules are shown by their SMILES.

Turning to `O=C(O)c1cn(C2CC2)c2cc(N3CCNCC3)c(F)cc2c1=O` [ciprofloxacin], the minimum inhibitory concentration entry with S. pneumoniae and in the series with H. influenza was “about 4 μg/mL” in each case. Moreover, the “pH of ciprofloxacin solution” value in series [1] is listed as 3-4.
